Holding throughout (assay type): in vivo, human
Experiment [1] has as its system viral infections. The experiment is described as follows: Treatment of Patient with ME/CFS I (case report). As for the experimental part:
A person residing in Sweden and diagnosed with myalgic encephalomyelitis/chronic fatigue syndrome (ME/CFS), reported that they started to use NBMI extensively in 2010 starting with 600 mg/day for 1.5 months, then 400 mg/day for 1.5 months and then 300 mg/day for three months.
Due to ME/CFS, the person was often inflicted with viral infections.

Experiment [2] concerns common cold-like and/or flu-like illnesses. The experiment is described as follows: Treatment of Patient I (case report, daily NBMI). The note with it: man, up to 300 mg/day NBMI almost daily for approximately 14 years; self-reported. On the procedure: A person residing in the USA reported taking doses of up to 300 mg/day NBMI almost daily since 2006.
Before taking NBMI, the person regularly became sick with such illnesses due to their work as a university professor and being an avid outdoorsman.

In experiment [3] the test system is viral infections. In words: Treatment of Patient with ME/CFS II (case report). The note with it: person with ME/CFS and long history of viral infections, 300 mg/day NBMI from 2010; self-reported. An excerpt:
The person was often sick and had, therefore, a poor quality of life.

For experiment [4], the system named is common cold-like and/or flu-like symptoms. In words: Treatment of Patient II (case report, daily NBMI). The conditions noted are these: self-reported. An excerpt:
A person residing in the USA, the spouse of Patient I, reported that they were often inflicted with common cold-like and/or flu-like symptoms due to their profession as a registered nurse.

[5] abbreviates: person with ME/CFS, 2010, 600 then 400 then 300 mg/day, self-reported.

Molecules are shown by their SMILES.

Turning to `O=C(NCCS)c1cccc(C(=O)NCCS)c1` [NBMI, N,N-bis-2-mercaptoethyl isophthalamide], the “frequency and severity of infections on restarting NBMI” value in the experiment with viral infections [1] (person with ME/CFS, 300 mg/day again from late 2011, self-reported) is “got fewer and less severe”. Also, the “frequency of viral infections” value in the experiment on viral infections [1] (person with ME/CFS, 2010, 600 mg/day for 1.5 months, then 400 mg/day for 1.5 months, then 300 mg/day for three months, self-reported) is reported as “viral infections became fewer”. In the experiment with viral infections [1] (setting [5]), the “intensity of viral infections (pain, headache, fatigue, time bedridden)” value is “intensity was less severe” and the “recovery time from viral infections” value is “recovery time was quicker”. In the experiment on viral infections [1] (person with ME/CFS, after halting NBMI in summer 2010, self-reported), the “frequency and severity of viral infections after halting the treatment” value is “viral infections became more frequent and more severe”. Also, the “severity and duration of virus infection when NBMI is taken during infection” value in the experiment on viral infections [1] (person with ME/CFS, occasional NBMI when inflicted with a virus infection, compared with not taking NBMI, patient's impression) was “less severe and shorter in duration”. In addition, the “occurrence of common cold-like and/or flu-like illnesses” value in experiment [2] is recorded as “has not become unwell with common cold-like and/or flu-like illnesses”. Also, in the experiment on viral infections [3], the “occurrence of viral infections” value is “no longer suffered from viral infections”. Further, the “common cold-like and/or flu-like symptoms, recent years” value in experiment [4] (person, NBMI daily, over the past 5 years) was “has not experienced any such symptoms”. The “flu-like symptoms after starting NBMI” value in experiment [4] (registered nurse, NBMI daily since 2010) is reported as “great decrease in having flu-like symptoms”.

The values are drawn from patent US20230181498A1, “NEW USE OF N,N-BIS-2-MERCAPTOETHYL ISOPHTHALAMIDE” (EMERAMED LIMITED, priority 2020, published 2023).
